In patent US10004701B2, “Methods and compositions for treating infection” (UNIVERSITY OF ROCHESTER, priority 2012, dated 2018):
Counter-ions that a name gives are not always drawn. Like-named read-outs stand apart in the source and are kept apart here.

Key:
Experiment in all cases: AK assay 384-well format, Prestwick library screening
[1] = system: A. baumannii strain 98-37-09; format: cell-based, Acinetobacter baumannii; settings: Acinetobacter baumannii, 983709, 3 h, 50 μM final drug concentration
E. cloacae = format: cell-based, Enterobacter cloacae; settings: Enterobacter cloacae, 3 h, 50 μM final drug concentration
[2] = system: S. aureus strain USA300-0114; format: cell-based, Staphylococcus aureus; settings: Staphylococcus aureus, USA300, 3 h, 50 μM final drug concentration
E. faecium = format: cell-based, Enterococcus faecium; settings: Enterococcus faecium, 3 h, 50 μM final drug concentration
P. aeruginosa = format: cell-based, Pseudomonas aeruginosa; settings: Pseudomonas aeruginosa, 3 h, 50 μM final drug concentration
K. pneumoniae = format: cell-based, Klebsiella pneumoniae; settings: Klebsiella pneumoniae, 3 h, 50 μM final drug concentration
E. coli = format: cell-based, Escherichia coli; settings: Escherichia coli, 3 h, 50 μM final drug concentration
[3] = planktonic, cutoff for positive 3-fold increase, read-out: AK-based Prestwick Library Screening Results, A. baumannii (fold increase in extracellular AK activity)
[4] = planktonic, cutoff for positive 3-fold increase, read-out: AK-based Prestwick Library Screening Results, E. cloacae (fold increase in extracellular AK activity)
[5] = planktonic, cutoff for positive 3-fold increase, read-out: AK-based Prestwick Library Screening Results, S. aureus (fold increase in extracellular AK activity)
[6] = planktonic, cutoff for positive 3-fold increase, read-out: AK-based Prestwick Library Screening Results, E. faecium (fold increase in extracellular AK activity)
[7] = planktonic, cutoff for positive 3-fold increase, read-out: AK-based Prestwick Library Screening Results, P. aeruginosa (fold increase in extracellular AK activity)
[8] = planktonic, cutoff for positive 3-fold increase, read-out: AK-based Prestwick Library Screening Results, K. pneumoniae (fold increase in extracellular AK activity)
[9] = planktonic, cutoff for positive 3-fold increase, read-out: AK-based Prestwick Library Screening Results, E. coli (fold increase in extracellular AK activity)
[10] = cutoff for positive-scoring molecules 3-fold increase, read-out: AK-based Prestwick Library Screening Results, A. baumannii (fold increase in extracellular AK activity)
[11] = cutoff for positive-scoring molecules 3-fold increase, read-out: AK-based Prestwick Library Screening Results, E. cloacae (fold increase in extracellular AK activity)
[12] = cutoff for positive-scoring molecules 3-fold increase, read-out: AK-based Prestwick Library Screening Results, S. aureus (fold increase in extracellular AK activity)
[13] = cutoff for positive-scoring molecules 3-fold increase, read-out: AK-based Prestwick Library Screening Results, E. faecium (fold increase in extracellular AK activity)
[14] = cutoff for positive-scoring molecules 3-fold increase, read-out: AK-based Prestwick Library Screening Results, P. aeruginosa (fold increase in extracellular AK activity)
[15] = cutoff for positive-scoring molecules 3-fold increase, read-out: AK-based Prestwick Library Screening Results, K. pneumoniae (fold increase in extracellular AK activity)
[16] = cutoff for positive-scoring molecules 3-fold increase, read-out: AK-based Prestwick Library Screening Results, E. coli (fold increase in extracellular AK activity)
[17] = planktonic, cutoff for positive-scoring molecules 3-fold increase, read-out: AK-based Prestwick Library Screening Results, A. baumannii (fold increase in extracellular AK activity)
[18] = planktonic, cutoff for positive-scoring molecules 3-fold increase, read-out: AK-based Prestwick Library Screening Results, E. cloacae (fold increase in extracellular AK activity)
[19] = planktonic, cutoff for positive-scoring molecules 3-fold increase, read-out: AK-based Prestwick Library Screening Results, S. aureus (fold increase in extracellular AK activity)
[20] = planktonic, cutoff for positive-scoring molecules 3-fold increase, read-out: AK-based Prestwick Library Screening Results, E. faecium (fold increase in extracellular AK activity)
[21] = planktonic, cutoff for positive-scoring molecules 3-fold increase, read-out: AK-based Prestwick Library Screening Results, P. aeruginosa (fold increase in extracellular AK activity)
[22] = planktonic, cutoff for positive-scoring molecules 3-fold increase, read-out: AK-based Prestwick Library Screening Results, K. pneumoniae (fold increase in extracellular AK activity)
[23] = planktonic, cutoff for positive-scoring molecules 3-fold increase, read-out: AK-based Prestwick Library Screening Results, E. coli (fold increase in extracellular AK activity)

## CN1CCN(CCCN2c3ccccc3Sc3ccc(Cl)cc32)CC1 [Prochlorperazine dimaleate]
[1]; [3]
  fold induction at 50 µM: 1.6
E. cloacae; [4]
  fold induction at 50 µM: 2
[2]; [5]
  fold induction at 50 µM: 1.1
E. faecium; [6]
  fold induction at 50 µM: 1.1
P. aeruginosa; [7]
  fold induction at 50 µM: 1.2
K. pneumoniae; [8]
  fold induction at 50 µM: 1.2
E. coli; [9]
  fold induction at 50 µM: 1.2

## OC(CCN1CCCC1)(c1ccccc1)C1CCCCC1 (centres unmarked) [Procyclidine hydrochloride]
[1]; [10]
  fold induction at 50 µM: 1.1
E. cloacae; [11]
  fold induction at 50 µM: 1.8
[2]; [12]
  fold induction at 50 µM: 1.2
E. faecium; [13]
  fold induction at 50 µM: 1.1
P. aeruginosa; [14]
  fold induction at 50 µM: 1.2
K. pneumoniae; [15]
  fold induction at 50 µM: 0.9
E. coli; [16]
  fold induction at 50 µM: 1.4

## CC(=O)[C@H]1CC[C@H]2[C@@H]3CCC4=CC(=O)CC[C@]4(C)[C@H]3CC[C@]12C [Progesterone]
[1]; [3]
  fold induction at 50 µM: 1.1
E. cloacae; [4]
  fold induction at 50 µM: 1.7
[2]; [5]
  fold induction at 50 µM: 1.1
E. faecium; [6]
  fold induction at 50 µM: 1.1
P. aeruginosa; [7]
  fold induction at 50 µM: 1
K. pneumoniae; [8]
  fold induction at 50 µM: 1.1
E. coli; [9]
  fold induction at 50 µM: 1

## CCCN(CCC)C(=O)C(CCC(=O)O)NC(=O)c1ccccc1 (centres unmarked) [Proglumide]
[1]; planktonic A. baumannii, 384-well, cutoff for positive-scoring molecules 3-fold increase, read-out: AK-based Prestwick Library Screening Results: A. baumannii (increase in extracellular AK activity)
  fold induction at 50 µM: 1.3
E. cloacae; planktonic E. cloacae, 384-well, cutoff for positive-scoring molecules 3-fold increase, read-out: AK-based Prestwick Library Screening Results: E. cloacae (increase in extracellular AK activity)
  fold induction at 50 µM: 1.5
[2]; planktonic S. aureus, 384-well, cutoff for positive-scoring molecules 3-fold increase, read-out: AK-based Prestwick Library Screening Results: S. aureus (increase in extracellular AK activity)
  fold induction at 50 µM: 1.1
E. faecium; planktonic E. faecium, 384-well, cutoff for positive-scoring molecules 3-fold increase, read-out: AK-based Prestwick Library Screening Results: E. faecium (increase in extracellular AK activity)
  fold induction at 50 µM: 1
P. aeruginosa; planktonic P. aeruginosa, 384-well, cutoff for positive-scoring molecules 3-fold increase, read-out: AK-based Prestwick Library Screening Results: P. aeruginosa (increase in extracellular AK activity)
  fold induction at 50 µM: 1.1
K. pneumoniae; planktonic K. pneumoniae, 384-well, cutoff for positive-scoring molecules 3-fold increase, read-out: AK-based Prestwick Library Screening Results: K. pneumoniae (increase in extracellular AK activity)
  fold induction at 50 µM: 1.2
E. coli; planktonic E. coli, 384-well, cutoff for positive-scoring molecules 3-fold increase, read-out: AK-based Prestwick Library Screening Results: E. coli (increase in extracellular AK activity)
  fold induction at 50 µM: 1.3

## [H]/N=C(\N/C(=N/[H])Nc1ccc(Cl)cc1)NC(C)C [Proguanil hydrochloride]
[1]; planktonic A. baumannii, positive cutoff 3-fold increase, read-out: AK-based Prestwick library screening result, A. baumannii (fold increase in extracellular AK activity)
  fold induction at 50 µM: 0.9
E. cloacae; planktonic E. cloacae, positive cutoff 3-fold increase, read-out: AK-based Prestwick library screening result, E. cloacae (fold increase in extracellular AK activity)
  fold induction at 50 µM: 1.1
[2]; planktonic S. aureus, positive cutoff 3-fold increase, read-out: AK-based Prestwick library screening result, S. aureus (fold increase in extracellular AK activity)
  fold induction at 50 µM: 0.9
E. faecium; planktonic E. faecium, positive cutoff 3-fold increase, read-out: AK-based Prestwick library screening result, E. faecium (fold increase in extracellular AK activity)
  fold induction at 50 µM: 0.8
P. aeruginosa; planktonic P. aeruginosa, positive cutoff 3-fold increase, read-out: AK-based Prestwick library screening result, P. aeruginosa (fold increase in extracellular AK activity)
  fold induction at 50 µM: 0.8
K. pneumoniae; planktonic K. pneumoniae, positive cutoff 3-fold increase, read-out: AK-based Prestwick library screening result, K. pneumoniae (fold increase in extracellular AK activity)
  fold induction at 50 µM: 0.7
E. coli; planktonic E. coli, positive cutoff 3-fold increase, read-out: AK-based Prestwick library screening result, E. coli (fold increase in extracellular AK activity)
  fold induction at 50 µM: 0.9

## CN(C)CCCN1c2ccccc2Sc2ccccc21 [Promazine hydrochloride]
[1]; [10]
  fold induction at 50 µM: 0.9
E. cloacae; [11]
  fold induction at 50 µM: 1.7
[2]; [12]
  fold induction at 50 µM: 1.4
E. faecium; [13]
  fold induction at 50 µM: 1
P. aeruginosa; [14]
  fold induction at 50 µM: 1.1
K. pneumoniae; [15]
  fold induction at 50 µM: 0.8
E. coli; [16]
  fold induction at 50 µM: 1.2

## CC(CN1c2ccccc2Sc2ccccc21)N(C)C (centres unmarked) [Promethazine hydrochloride]
[1]; [17]
  fold induction at 50 µM: 0.6
E. cloacae; [18]
  fold induction at 50 µM: 0.5
[2]; [19]
  fold induction at 50 µM: 0.5
E. faecium; [20]
  fold induction at 50 µM: 0.8
P. aeruginosa; [21]
  fold induction at 50 µM: 0.6
K. pneumoniae; [22]
  fold induction at 50 µM: 0.5
E. coli; [23]
  fold induction at 50 µM: 0.6

## CC(C)NCC(O)c1ccc2ccccc2c1 (centres unmarked) [Pronethalol hydrochloride]
[1]; [10]
  fold induction at 50 µM: 0.6
E. cloacae; [11]
  fold induction at 50 µM: 0.9
[2]; [12]
  fold induction at 50 µM: 0.6
E. faecium; [13]
  fold induction at 50 µM: 0.9
P. aeruginosa; [14]
  fold induction at 50 µM: 0.6
K. pneumoniae; [15]
  fold induction at 50 µM: 0.6
E. coli; [16]
  fold induction at 50 µM: 0.7

## CCCNCC(O)COc1ccccc1C(=O)CCc1ccccc1 (centres unmarked) [Propafenone hydrochloride]
[1]; planktonic A. baumannii, cutoff for positive-scoring molecules 3-fold increase, read-out: AK-based Prestwick Library Screening Results, A. baumannii (increase in extracellular AK activity)
  fold induction at 50 µM: 0.7
E. cloacae; planktonic E. cloacae, cutoff for positive-scoring molecules 3-fold increase, read-out: AK-based Prestwick Library Screening Results, E. cloacae (increase in extracellular AK activity)
  fold induction at 50 µM: 0.8
[2]; planktonic S. aureus, cutoff for positive-scoring molecules 3-fold increase, read-out: AK-based Prestwick Library Screening Results, S. aureus (increase in extracellular AK activity)
  fold induction at 50 µM: 0.7
E. faecium; planktonic E. faecium, cutoff for positive-scoring molecules 3-fold increase, read-out: AK-based Prestwick Library Screening Results, E. faecium (increase in extracellular AK activity)
  fold induction at 50 µM: 1
P. aeruginosa; planktonic P. aeruginosa, cutoff for positive-scoring molecules 3-fold increase, read-out: AK-based Prestwick Library Screening Results, P. aeruginosa (increase in extracellular AK activity)
  fold induction at 50 µM: 0.7
K. pneumoniae; planktonic K. pneumoniae, cutoff for positive-scoring molecules 3-fold increase, read-out: AK-based Prestwick Library Screening Results, K. pneumoniae (increase in extracellular AK activity)
  fold induction at 50 µM: 0.6
E. coli; planktonic E. coli, cutoff for positive-scoring molecules 3-fold increase, read-out: AK-based Prestwick Library Screening Results, E. coli (increase in extracellular AK activity)
  fold induction at 50 µM: 1

## CC(C)[N+](C)(CCOC(=O)C1c2ccccc2Oc2ccccc21)C(C)C [Propantheline bromide]
[1]; [17]
  fold induction at 50 µM: 1
E. cloacae; [18]
  fold induction at 50 µM: 1.3
[2]; [19]
  fold induction at 50 µM: 0.8
E. faecium; [20]
  fold induction at 50 µM: 0.8
P. aeruginosa; [21]
  fold induction at 50 µM: 0.9
K. pneumoniae; [22]
  fold induction at 50 µM: 0.8
E. coli; [23]
  fold induction at 50 µM: 0.9

## CCCOc1ccc(C(=O)OCCN(CC)CC)cc1N [Proparacaine hydrochloride]
[1]; [10]
  fold induction at 50 µM: 1.4
E. cloacae; [11]
  fold induction at 50 µM: 1.2
[2]; [12]
  fold induction at 50 µM: 1.2
E. faecium; [13]
  fold induction at 50 µM: 1
P. aeruginosa; [14]
  fold induction at 50 µM: 1.1
K. pneumoniae; [15]
  fold induction at 50 µM: 1.1
E. coli; [16]
  fold induction at 50 µM: 1.3
